Results on 1 compound are retold here after US9505761B2, “Bicyclic compounds and their use as antibacterial agents and beta-lactamase inhibitors” (FEDORA PHARMACEUTICALS INC., priority 2011, dated 2016).

What all share (assay): β-lactamase inhibitory activity, spectrophotometric, nitrocefin
What all share (type): biochemical

One assay has as its target CMY-2 (Klebsiella pneumoniae, UniProt Q48434). How it is done:
(§1) The inhibitory activities of present compounds against various enzymes were measured by spectrophotometric assay using […] and using nitrocefin as a substrate (J. Antimicrob. Chemother., 28, pp 775-776 (1991)). The concentration of inhibitor (IC50) which inhibits by 50% the reaction of hydrolysis of nitrocefin by the enzyme is determined.

For another assay, the target named is CTX-M-9 (Escherichia coli, UniProt Q9L5C8). As to the method: as §1
Another assay deals with KPC-2 (Klebsiella pneumoniae, UniProt Q9F663). As to the method: as §1
For another assay, the target named is TEM-1 (Escherichia coli, UniProt P62593). The note with it: nitrocefin substrate, 490 nM as printed. As to the method: as §1

Consider `O=C(NO[C@H]1CCNC1)[C@@H]1CC[C@@H]2CN1C(=O)N2OS(=O)(=O)O` [Ex. 2, (2S,5R)-7-oxo-N-[(3S)-pyrrolidin-3-yloxy]-6-(sulfooxy)-1,6-diazabicyclo[3.2.1]octane-2-carboxamide], for which the IC50 against CMY-2 was found to be 32 ± 3 nM; on CTX-M-9 it was 127 ± 9 nM; at KPC-2, 73 ± 7 nM; against TEM-1, 136 ± 12 nM.

For orientation: IC50 means the concentration needed to halve the response being measured.
